Ki data for 14 molecules are collected here from US9409908B2 (priority 2012, dated 2016).

A word on the Ki: it is the dissociation constant of the complex between target and ligand, obtained from inhibition or displacement.

Assay [1] has as its target purified human Factor XIa (Homo sapiens (Human), UniProt P03951). Put plainly: biochemical. To be noted: read-out: Factor XIa Ki. The class given is biochemical.
Assay [2] addresses purified human plasma kallikrein (Homo sapiens (Human), UniProt P03952). Put plainly: biochemical. To be noted: read-out: Plasma Kallikrein Ki. Format: biochemical.

Counter-ions that a name gives are not always drawn.

Sequence of purified human Factor XIa (P03951 whole entry, looked up): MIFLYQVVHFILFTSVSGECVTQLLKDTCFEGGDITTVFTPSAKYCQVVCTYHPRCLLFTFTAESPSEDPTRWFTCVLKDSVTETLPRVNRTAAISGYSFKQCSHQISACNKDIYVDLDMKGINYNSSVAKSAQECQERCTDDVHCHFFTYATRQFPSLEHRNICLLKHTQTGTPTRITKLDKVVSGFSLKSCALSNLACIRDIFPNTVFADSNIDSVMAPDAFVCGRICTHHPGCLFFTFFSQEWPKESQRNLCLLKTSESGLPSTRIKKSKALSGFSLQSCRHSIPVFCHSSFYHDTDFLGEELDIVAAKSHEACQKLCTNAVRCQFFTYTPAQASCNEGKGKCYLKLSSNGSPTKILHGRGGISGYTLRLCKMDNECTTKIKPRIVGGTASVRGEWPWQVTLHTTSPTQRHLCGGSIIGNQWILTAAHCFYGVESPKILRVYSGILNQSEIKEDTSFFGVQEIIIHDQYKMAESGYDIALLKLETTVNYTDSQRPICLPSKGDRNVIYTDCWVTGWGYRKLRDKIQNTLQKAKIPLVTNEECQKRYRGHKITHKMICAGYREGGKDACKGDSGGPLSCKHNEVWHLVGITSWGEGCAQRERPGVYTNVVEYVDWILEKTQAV
Sequence of purified human Factor XIa (P03951 whole entry partner, looked up): as the sequence (P03951 whole entry, looked up) above
Sequence of purified human plasma kallikrein (P03952 whole entry, looked up): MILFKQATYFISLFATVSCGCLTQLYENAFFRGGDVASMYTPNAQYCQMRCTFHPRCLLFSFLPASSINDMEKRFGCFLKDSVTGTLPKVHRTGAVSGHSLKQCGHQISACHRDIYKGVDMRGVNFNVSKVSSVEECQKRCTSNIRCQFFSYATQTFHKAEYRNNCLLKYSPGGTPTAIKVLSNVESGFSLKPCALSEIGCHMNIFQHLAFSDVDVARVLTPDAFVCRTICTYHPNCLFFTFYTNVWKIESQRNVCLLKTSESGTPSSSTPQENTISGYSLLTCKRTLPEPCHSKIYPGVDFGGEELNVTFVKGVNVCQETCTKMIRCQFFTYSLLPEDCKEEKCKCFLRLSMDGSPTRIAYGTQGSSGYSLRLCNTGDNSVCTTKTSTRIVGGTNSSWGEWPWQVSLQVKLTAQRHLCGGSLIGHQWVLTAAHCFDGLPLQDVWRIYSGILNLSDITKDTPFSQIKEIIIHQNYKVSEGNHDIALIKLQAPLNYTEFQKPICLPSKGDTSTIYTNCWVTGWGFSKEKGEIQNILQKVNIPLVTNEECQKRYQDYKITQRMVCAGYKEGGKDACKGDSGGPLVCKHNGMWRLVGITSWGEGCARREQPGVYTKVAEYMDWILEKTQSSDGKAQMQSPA
Sequence of purified human plasma kallikrein (P03952 whole entry partner, looked up): as the sequence (P03952 whole entry, looked up) above

For `COC(=O)Nc1ccc2c(c1)NC(=O)[C@H](C)CCC[C@H](n1ncc(-c3c(F)ccc(Cl)c3F)cc1=O)c1cc-2ccn1` [Example 11, Methyl N-[(10R,14S)-14-[4-(3-chloro-2,6-difluorophenyl)-6-oxo-1,6-dihydropyridazin-1-yl]-10-methyl-9-oxo-8,16-diazatricyclo[13.3.1.0^2,7]nonadeca-1(19),2(7),3,5,15,17-hexaen-5-yl]carbamate, TFA salt], the values for the Ki in assay [1] and in assay [2] were 6.77 nM and 14 nM, respectively.

For `C[C@@H]1CCC[C@H](N2CCC(c3c(F)ccc(Cl)c3F)=CC2=O)c2cc(ccn2)-c2ccccc2NC1=O` [Example 13, (10R,14S)-14-[4-(3-Chloro-2,6-difluorophenyl)-6-oxo-1,2,3,6-tetrahydropyridin-1-yl]-10-methyl-8,16-diazatricyclo[13.3.1.0^2,7]nonadeca-1(19),2,4,6,15,17-hexaen-9-one], the values for the Ki in assay [1] and in assay [2] were 13.7 nM and 8 nM, respectively.

Take `C[C@@H]1CCC[C@H](N2CCC(c3c(F)ccc(Cl)c3F)=CC2=O)c2cc(ccn2)-c2ccc(Nc3ncccn3)cc2NC1=O` [Example 16, (10R,14S)-14-[4-(3-Chloro-2,6-difluorophenyl)-6-oxo-1,2,3,6-tetrahydropyridin-1-yl]-10-methyl-5-[(pyrimidin-2-yl)amino]-8,16-diazatricyclo[13.3.1.0^2,7]nonadeca-1(19),2(7),3,5,15,17-hexaen-9-one, 2 TFA salt]: the Ki was determined as 1.15 nM in assay [1] and 1 nM in assay [2].

For `COc1ccc2c(c1)NC(=O)[C@H](C)CCC[C@H](N1CCC(c3c(F)ccc(Cl)c3F)=CC1=O)c1cc-2ccn1` [Example 17, (10R,14S)-14-[4-(3-chloro-2,6-difluorophenyl)-6-oxo-1,2,3,6-tetrahydropyridin-1-yl]-5-methoxy-10-methyl-8,16-diazatricyclo[13.3.1.0^2,7]nonadeca-1(19),2,4,6,15,17-hexaen-9-one, TFA salt], the results for the Ki in assay [1] and in assay [2] were 45.3 nM and 114 nM, respectively.

In the case of `C[C@@H]1CCC[C@H](N2CCC(c3c(F)ccc(Cl)c3F)=CC2=O)c2cc(ccn2)-c2cc(Cl)c(O)cc2NC1=O` [Example 19, (10R,14S)-4-Chloro-14-[4-(3-chloro-2,6-difluorophenyl)-6-oxo-1,2,3,6-tetrahydropyridin-1-yl]-5-hydroxy-10-methyl-8,16-diazatricyclo[13.3.1.0^2,7]nonadeca-1(19),2,4,6,15,17-hexaen-9-one, TFA salt], the Ki in assay [1] is 15.5 nM; in assay [2], 52 nM.

As to `Cc1nnc(Nc2ccc3c(c2)NC(=O)[C@H](C)CCC[C@H](N2CCC(c4c(F)ccc(Cl)c4F)=CC2=O)c2cc-3ccn2)o1` [Example 21, (10R,14S)-14-[4-(3-Chloro-2,6-difluorophenyl)-6-oxo-1,2,3,6-tetrahydropyridin-1-yl]-10-methyl-5-[(5-methyl-1,3,4-oxadiazol-2-yl)amino]-8,16-diazatricyclo[13.3.1.0^2,7]nonadeca-1(19),2(7),3,5,15,17-hexaen-9-one, TFA salt], the Ki in assay [1] worked out at 0.46 nM; in assay [2] it was 1 nM.

Turning to `COC(=O)Nc1ccc2c(c1)NC(=O)[C@H](C)CC(=O)C[C@H](N1CCC(c3c(F)ccc(Cl)c3F)=CC1=O)c1cc-2ccn1` [Example 22, Methyl N-[(10R,14S)-14-[4-(3-chloro-2,6-difluorophenyl)-6-oxo-1,2,3,6-tetrahydropyridin-1-yl]-10-methyl-9,12-dioxo-8,16-diazatricyclo[13.3.1.0^2,7]nonadeca-1(19),2,4,6,15,17-hexaen-5-yl]carbamate, TFA salt], the figures for the Ki in assay [1] and in assay [2] were over 438 nM and 352 nM, respectively.

With `COC(=O)Nc1ccc2c(c1)C(=O)NCCCC[C@H](N1CCC(c3c(F)ccc(Cl)c3F)=CC1=O)c1cc-2ccn1` [Example 24, Methyl N-[(14S)-14-[4-(3-chloro-2,6-difluorophenyl)-6-oxo-1,2,3,6-tetrahydropyridin-1-yl]-8-oxo-9,16-diazatricyclo[13.3.1.0^2,7]nonadeca-1(19),2(7),3,5,15,17-hexaen-5-yl]carbamate, TFA salt], the Ki in assay [1] was 270 nM; in assay [2], 214 nM.

As for `COC(=O)Nc1ccc2c(c1)NC(=O)[C@H](C)CCC[C@H](N1CCC(c3c(C(F)(F)F)ccc(Cl)c3F)=CC1=O)c1cc-2ccn1` [Example 25, Methyl N-[(10R,14S)-14-{4-[3-chloro-2-fluoro-6-(trifluoromethyl)phenyl]-6-oxo-1,2,3,6-tetrahydropyridin-1-yl}-10-methyl-9-oxo-8,16-diazatricyclo[13.3.1.0^2,7]nonadeca-1(19),2,4,6,15,17-hexaen-5-yl]carbamate, TFA salt], the Ki in assay [1] amounted to 0.1 nM; in assay [2] it was 12 nM.

As to `COC(=O)Nc1ccc2c(c1)NC(=O)[C@H](C)CCC[C@H](N1CCC(c3c(C#N)ccc(Cl)c3F)=CC1=O)c1cc-2cc(OC)n1` [Example 26, Methyl N-[(10R,14S)-14-[4-(3-chloro-6-cyano-2-fluorophenyl)-6-oxo-1,2,3,6-tetrahydropyridin-1-yl]-17-methoxy-10-methyl-9-oxo-8,16-diazatricyclo[13.3.1.0^2,7]nonadeca-1(18),2,4,6,15(19),16-hexaen-5-yl]carbamate], the Ki in assay [1] came out at 0.09 nM; in assay [2], 1 nM.

In the case of `C[C@@H]1CCC[C@H](N2CCC(c3c(Br)ccc(Cl)c3F)=CC2=O)c2cc(ccn2)-c2ccc(C(=O)O)cc2NC1=O` [Example 28, (14S)-14-[4-(6-Bromo-3-chloro-2-fluorophenyl)-6-oxo-1,2,3,6-tetrahydropyridin-1-yl]-10-methyl-9-oxo-8,16-diazatricyclo[13.3.1.0^2,7]nonadeca-1(19),2(7),3,5,15,17-hexaene-5-carboxylic acid, TFA salt], the Ki in assay [1] was over 443 nM; in assay [2], 196 nM.

On to `C[C@@H]1CCC[C@H](N2CCC(c3c(Br)ccc(Cl)c3F)=CC2=O)c2cc(ccn2)-c2ccc(C(N)=O)cc2NC1=O` [Example 29, (14S)-14-[4-(6-Bromo-3-chloro-2-fluorophenyl)-6-oxo-1,2,3,6-tetrahydropyridin-1-yl]-10-methyl-9-oxo-8,16-diazatricyclo[13.3.1.0^2,7]nonadeca-1(19),2(7),3,5,15,17-hexaene-5-carboxamide, TFA salt], for which the Ki in assay [1] was 2.88 nM; in assay [2] it was 3 nM.

`COC(=O)Nc1ccc2c(c1)NC(=O)[C@H](C)CCC[C@H](N1CCC(c3c(C#N)ccc(Cl)c3F)=CC1=O)c1cc-2cc(=O)[nH]1` [Example 30, Methyl N-[(10R,14S)-14-[4-(3-chloro-6-cyano-2-fluorophenyl)-6-oxo-1,2,3,6-tetrahydropyridin-1-yl]-10-methyl-9,17-dioxo-8,16-diazatricyclo[13.3.1.0^2,7]nonadeca-1(18),2,4,6,15(19)-pentaen-5-yl]carbamate, TFA salt]: the Ki in assay [1] is 0.21 nM; in assay [2], 3 nM.

Take `COC(=O)Nc1ccc2c(c1)NC(=O)[C@H](C)CCC[C@H](N1CCC(c3c(OC(F)F)ccc(Cl)c3F)=CC1=O)c1ccnc-2c1` [Example 31, Methyl N-[(10R,14S)-14-{4-[3-chloro-6-(difluoromethoxy)-2-fluorophenyl]-6-oxo-1,2,3,6-tetrahydropyridin-1-yl}-10-methyl-9-oxo-8,18-diazatricyclo[13.3.1.0^2,7]nonadeca-1(19),2,4,6,15,17-hexaen-5-yl]carbamate, TFA salt]: the Ki in assay [1] turned out to be 0.04 nM; in assay [2], 3 nM.
